Assay results taken from US20160279204A1, “PEPTIDES AND PHARMACEUTICAL COMPOSITIONS FOR USE IN THE TREATMENT BY NASAL ADMINISTRATION OF PATIENTS SUFFERING FROM ANXIETY AND SLEEP DISORDERS” (MAX-PLANCK-GESELLSCHAFT ZUR FÖRDERUNG DER WISSENSCHAFT E.V., priority 2011, published 2016).
“Also recorded” adds a separate entry of the source.

How the values were obtained:
[1] = system: Cy3-NPS uptake in mouse brain; test: Cy3-NPS uptake after ICV pre-injection of native NPS; format: in vivo; conditions: native NPS at 5 fold concentration, 10 min prior to ICV Cy3-NPS (0.2 nmol per mouse)
Experimental: The mice were sacrificed 30 min post-injection.
To clarify the mechanism of intracellular Cy3-NPS uptake, native, i.e. unlabeled, NPS at 5 fold concentration was injected unilaterally 10 min prior to ICV injection of Cy3-NPS (0.2 nmol per mouse). […] This points towards a receptor-mediated uptake mechanism, since, as shown for other neuropeptides (cf. Grady et al., 1996; Hubbard et al., 2009) pre-treatment with unlabeled agonists leads to receptor saturation, thereby antagonising the uptake of labelled agonist (here Cy3-NPS).

Bl6 and HAB mice [2] = test: Elevated plus maze (EPM) after intranasal NPS; format: in vivo, mouse
Experimental: (§1) Behavioural tests (open field, dark-light test and elevated plus maze (EPM)) following intranasal NPS application were performed sequentially. Each test lasted for 5 min with an inter-test interval of 5 min, as described previously (Bunck et al., 2009; Krömer et al., 2005). The animals' behaviour during testing was videotaped and relevant parameters were analysed with the tracking software ANY-maze version 4.30 (Stoelting, Wood Dale, Ill., USA). Native NPS (1 μg/μL) or vehicle (Ringer solution) were administered intranasally to the alert mouse as described above (total volume: 14 μL). Mice were tested 30 min and 4 hrs after intranasal administration of first drop. Animals were sacrificed 24 hrs after treatment and prefrontal cortex and bilateral hippocampi were prepared immediately and shock-frozen in methylbutane.
(§2) After having ascertained that nasally administered NPS reaches its target cells, anxiolytic effects of NPS were established for this transnasal delivery method. For this purpose, nasally 6.36 nmol NPS per mouse was administered to two mouse strains, Bl6 and HAB (high anxiety behaviour) mice. HAB animals, a mouse strain inbred for pathologically high anxiety, were chosen together with Bl6 mice to allow differentiation between the temporary condition of state anxiety and the general condition of trait anxiety (Bunck et al., 2009; Kromer et al., 2005). To accurately characterise the anxiety-relieving properties of NPS in these two mouse strains, three standardised behavioural assays measuring anxiolytic effects at two different time points after intranasal NPS administration were performed. In each test, the effects of intranasal NPS versus vehicle treatment on both anxiety- and locomotion-related indices were examined.

Bl6 and HAB mice [3] = test: Dark-light test after intranasal NPS; format: in vivo, mouse; conditions: for time spent in the light chamber / total distance traveled: intranasal, 4 hrs
Experimental: as §1, §2

NPSR [4] = conditions: cited from earlier work
NPSR [5] = target: T1, NPSR (Mus musculus, UniProt Q8BZP8); conditions: rodents, ICV injection, US 2010/0056455; cited from earlier work
T1 construct: host or cells: rodent brain in vivo
T1 sequence (Q8BZP8 1-371): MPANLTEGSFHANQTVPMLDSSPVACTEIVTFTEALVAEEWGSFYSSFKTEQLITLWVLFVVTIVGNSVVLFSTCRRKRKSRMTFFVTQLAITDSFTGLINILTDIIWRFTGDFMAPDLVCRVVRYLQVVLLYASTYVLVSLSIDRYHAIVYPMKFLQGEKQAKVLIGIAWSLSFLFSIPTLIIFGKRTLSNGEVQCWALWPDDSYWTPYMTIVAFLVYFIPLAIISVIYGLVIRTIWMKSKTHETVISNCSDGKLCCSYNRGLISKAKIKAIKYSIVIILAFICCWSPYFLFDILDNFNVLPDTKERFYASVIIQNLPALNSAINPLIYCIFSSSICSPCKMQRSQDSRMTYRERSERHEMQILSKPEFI

[6] = system: GluR1, GluR2, Glt-1, synapsin; test: Immunoblotting of prefrontal cortex and hippocampus lysates after intranasal NPS; format: in vivo, mouse; conditions: 24 hrs after intranasal NPS
Experimental: as §1
For immunoblotting, proteins were extracted from aforementioned two brain regions (prefrontal cortex and bilateral hippocampi). Quantitative blot analysis was performed using ImageJ software (http://rsbweb.nih.gov/ij/; Rasband, W. S., ImageJ, U.S. National Institutes of Health). Primary antibodies used: Glt-1, Glu-R1, Glu-R2 (all 1:100; all from Santa Cruz Biotechnology, Santa Cruz, Calif., USA), synapsin (1:2000; Synaptic Systems, Goettingen, Germany) and GAPDH (1:2000, Santa Cruz Biotechnology, Santa Cruz, Calif., USA). Secondary antibodies used: donkey anti-goat IgG-HRP (1:10000; Santa Cruz Biotechnology, Santa Cruz, Calif., USA), goat anti-rabbit IgG-HRP (1:7500, Sigma-Aldrich, St. Louis, Mo., USA) and goat anti-mouse IgG-HRP (1:25000, Sigma-Aldrich, St. Louis, Mo., USA).

[7] = system: CA3-CA1 synapses of the VH; test: Field potential recordings in VH slices after intranasal NPS; set-up: species or system mouse; conditions: for paired-pulse facilitation: interstimulus intervals 25, 50, 100, 200 ms
Experimental: Mice were then allowed to rest for 2 h before slice preparation and electrophysiological recording.
Brains were dissected and placed in ice-cold carbogenated ACSF. 350 μm horizontal slices containing the VH were prepared using a vibroslicer. Afterwards, the slices were incubated for 30 min at 34° C. and subsequently stored at room temperature. For experiments, slices were placed in a submerged recording chamber and continuously superfused with carbogenated ACSF at a flow rate of 3 mL/min. Square pulse electrical stimuli (50 μs pulse width) were delivered via a bipolar tungsten electrode (insulated to the tip, 50 μm pole diameter) that was positioned within the stratum radiatum of the CA1 region. All recordings were performed at room temperature, low-pass filtered at 1 kHz, and digitised at 5 kHz. Evoked field excitatory postsynaptic potentials (fEPSPs) were recorded using glass micro-electrodes (1 MΩ open-tip resistance), filled with ACSF and also positioned within the CA1 stratum radiatum. Stimulus intensities were adjusted in a manner to produce a fEPSP of ˜50% of that amplitude at which a population spike becomes clearly observable. Paired-pulse facilitation was measured at interstimulus intervals of 25, 50, 100, 200, and 400 ms and the paired-pulse ratio was calculated as fEPSP2 amplitude/fEPSP1 amplitude.

Bl6 and HAB mice [8] = test: Open field after intranasal NPS; format: in vivo, mouse
Experimental: as §1, §2

[9] = Bl6 and HAB mice, intranasal 6.36 nmol per mouse, 30 min

## neuropeptide S (SFRNGVGSGVKKTSFRRAKQ; Neuropeptide S; UniProt P0C0P7 70-89, looked up) [NPS, peptide agonist of neuropeptide S receptor (NPSR); native NPS, rat, from Bachem]
[1]
  effect of pre-injection on Cy3-NPS uptake: reduced Cy3-NPS uptake throughout the brain
Bl6 and HAB mice [2]; [9]
  behavioural differences versus vehicle in EPM: no behavioural differences
Bl6 and HAB mice [2]; Bl6 mice, intranasal, 4 hrs
  time on the open arms: significantly increased
  total number of entries: no difference
Bl6 and HAB mice [2]; HAB mice, intranasal, 4 hrs
  any parameter tested in the EPM: no differences
Bl6 and HAB mice [3]; [9]
  behavioural differences versus vehicle in dark-light test: no behavioural differences
Bl6 and HAB mice [3]; Bl6 mice
  time spent in the light chamber: did not differ significantly
  total distance traveled: did not differ significantly
Bl6 and HAB mice [3]; HAB mice
  time spent in the light chamber: significantly increased
  total distance traveled: unaffected
NPSR [4]; NPSR-KO mice, Duangdao et al., 2009
  response of NPSR-KO mice to NPS treatment: resistant
NPSR [4]; rodents, intracerebral and ICV injection
  anxiolytic effects: strong anxiolytic effects
NPSR [5]
  locomotor activity and wakefulness: increased locomotor activity and wakefulness
[6]; Bl6 mice, hippocampus versus prefrontal cortex
  synapsin expression: significantly increased in the hippocampus only
[6]; Bl6 mice, hippocampus
  GluR1, GluR2 and Glt-1 expression: remained unaffected
[6]; Bl6 mice, prefrontal cortex
  Glt-1 expression level: significantly increased
  GluR1 expression level: significantly increased
  GluR2 expression: remained unchanged
[6]; HAB mice, hippocampus
  protein expression changes in the hippocampus: no corresponding changes
[6]; HAB mice, prefrontal cortex
  Glt-1 levels: remained unchanged
  GluR1 expression: not affected
  GluR2 expression: significantly increased
[7]; C57BL/6N mice
  magnitude of LTP induced by high-frequency stimulation: weakened; also recorded: decreased the magnitude of LTP
  paired-pulse facilitation: weakened; also recorded: reduced paired-pulse facilitation
[7]; C57BL/6N mice, approximately 3 h after treatment
  input-output curve (fEPSP amplitudes): shift of input-output curves towards bigger fEPSP amplitudes; also recorded: shift of the input-output curve towards bigger fEPSP amplitudes
[7]; HAB mice
  input-output curve (fEPSP amplitudes): increase; also recorded: shift of the input-output curve towards bigger fEPSP amplitudes
  magnitude of LTP: reduction; also recorded: decreased the magnitude of LTP
  paired-pulse facilitation: reduction; also recorded: reduced paired-pulse facilitation
Bl6 and HAB mice [8]; [9]
  behavioural differences versus vehicle in open field: no behavioural differences
Bl6 and HAB mice [8]; Bl6 mice, intranasal, 4 hrs
  any parameter examined in the open field: no effect
Bl6 and HAB mice [8]; HAB mice, intranasal, 4 hrs
  any parameter tested in the open field: no differences
